Laboratory results from patent US20140349970A1 (ABBVIE INC., priority 2009, published 2014).
Read-outs that look alike come from different tables or passages of the source.

Target: T1, Syk catalytic domain (aa 356-635 with a C-terminal His-tag) (Homo sapiens, UniProt P43405)
T1 construct: His-tag (C); made in house
Assay: In vitro Syk kinase activity measured by trFRET, Syk catalytic domain
Type: biochemical
Method: In Vitro Syk Kinase Activity Measured by Time-Resolved Fluorescence Resonance Energy Transfer (trFRET)
0.14 nM purified Syk catalytic domain (aa 356-635 with a C-terminal His-tag purified in-house by immobilized metal ion affinity chromatography) was mixed with 0.2 μM peptide substrate (biotin-TYR1, Sequence: Biotin-(Ahx)-GAEEEIYAAFFA-COOH) at varying inhibitor concentrations in reaction buffer: 50 mM MOPSO pH 6.5, 10 mM MgCl2, 2 mM MnCl2, 2.5 mM DTT, 0.01% BSA, 0.1 mM Na3VO4 and 0.001 mM ATP. After about 60 min incubation at rt, the reaction was quenched by addition of EDTA (final concentration: 100 mM) and developed by addition of revelation reagents (final approximate concentrations: 30 mM HEPES pH 7.0, 0.06% BSA, 0.006% Tween-20, 0.24 M KF, 80 ng/mL PT66K (europium labeled anti-phosphotyrosine antibody cat #61T66KLB Cisbio, Bedford, Mass.) and 0.6 μg/mL SAXL (Phycolink streptavidin-allophycocyanin acceptor, cat #PJ255, Prozyme, San Leandro, Calif.). The developed reaction was incubated in the dark either at about 4° C. for about 14 h or for about 60 min at rt, then read via a time-resolved fluorescence detector (Rubystar, BMG) using a 337 nm laser for excitation and monitoring emission wavelengths at 665 nm. Within the linear range of the assay, the observed signal at 665 nm was directly related to phosphorylated product and can be used to calculate the IC50 values.
MOPSO buffer contains: 50 mM MOPSO pH 6.5, 10 mM MgCl2, 2 mM MnCl2, 2.5 mM DTT, 0.01% BSA, and 0.1 mM Na3VO4 HEPES buffer contains: 50 mM HEPES pH 7.1, 2.5 mM DTT, 10 mM MgCl2, 2 mM MnCl2, 0.01% BSA, and 0.1 mM Na3VO4 MOPS buffer contains: 20 mM MOPS pH 7.2, 10 mM MgCl2, 5 mM EGTA, 5 mM Beta-phosphoglycerol, 1 mM Na3VO4, 0.01% Triton-X-100 and 1 mM DTT
Biotin-TYR1-peptide sequence: Biotin-(Ahx)-GAEEEIYAAFFA-COOH Biotin-TYR2-peptide sequence: Biotin-(Ahx)-AEEEYFFLFA-amide KinEASE 51 peptides were purchased from Cisbio (cat #62ST0PEB, Bedford, Mass.)
PT66K was purchased from Cisbio (cat #61T66KLB, Bedford, Mass.) EuSTK was purchased from Cisbio (cat #62ST0PEB, Bedford, Mass.) SAXL was purchased from Prozyme (cat #PJ25S, San Leandro, Calif.) Human T-Blasts IL-2 pSTAT5 Cellular Assay

[1] = Syk catalytic domain (aa 356-635), trFRET, 0.001 mM ATP

| IC50 [1] | IC50 | Compound |
| --- | --- | --- |
| 1 to 10 µM |  | COc1ccc2c(c1)c(-c1cc3c(ncc4cnc(C)n43)n1COP(=O)(O)O)cn2C [Example 10, (7-(5-Methoxy-1-methyl-1H-indol-3-yl)-1-methyl-6H-imidazo[1,5-a]pyrrolo[2,3-e]pyrazin-6-yl) methyl disodium phosphate] |
| 1 to 10 µM |  | Cn1ncc2cnc3[nH]c(-c4cccn4CC(=O)N4CCOCC4)cc3c21 [J.2.3.2] |
| < 0.1 µM |  | Cn1cc(-c2cc3c(ncc4cnn(C)c43)[nH]2)c2cc(C(=O)O)ccc21 [AN.1, 1-Methyl-3-(1-methyl-1,6-dihydropyrazolo[3,4-d]pyrrolo[2,3-b]pyridin-7-yl)-1H-indole-5-carboxylic acid] |
| < 0.1 µM |  | COc1ccc2c(c1)c(-c1cc3c(ncc4cnn(C)c43)[nH]1)cn2CC(O)CN(C)C (stereo not drawn) [N.1.29] |
|  | 0.1 to 1 µM | COc1ccc(-c2nc(CN3CCNC(CO)C3)n3c2cnc2[nH]ccc23)cc1 (stereo not drawn) [T.3.1.6] |
| 0.1 to 1 µM |  | COc1ccc2c(c1)c(-c1cc3c(ncc4cnn(C)c43)[nH]1)nn2C [N.1.83] |
| 0.1 to 1 µM |  | COCCNS(=O)(=O)c1cccc(-c2cc3c(ncc4cnn(C)c43)[nH]2)c1 [N.1.42] |
| < 0.1 µM |  | CC(C)(O)c1ccc(-c2nc(N3CCC(CN)C3)n3c2cnc2[nH]ccc23)cc1 (stereo not drawn) [N.1.66] |
|  | 1 to 10 µM | COc1ccc(-c2ncn3c2cnc2[nH]cc(C4=CCNCC4)c23)cc1 [P.3.1.12] |
|  | 0.1 to 1 µM | CC(=O)c1cc(-c2ncn3c2cnc2[nH]ccc23)ccn1 [AC.4.4] |
| 0.1 to 1 µM |  | Cn1ncc2cnc3[nH]c(-c4cccc(CNC(=O)CCN5CCOCC5)c4)cc3c21 [J.1.1.3] |
| < 0.1 µM |  | Cc1nc(-c2ccc(C3(O)CCN(C(=O)CC#N)CC3)cc2)c2cnc3[nH]ccc3n12 [J.1.3.1] |

Further lines, the compound ahead of its results:

| Compound | IC50 [1] | IC50 |
| --- | --- | --- |
| CN1CCN(C(=O)CCO)C[C@@H]1c1nc(-c2ccc(C(C)(C)O)cc2)c2cnc3[nH]ccc3n12 [N.1.95] | 0.1 to 1 µM |  |
| COc1ccc(-c2ncn3c2cnc2[nH]ccc23)cc1OC [AC.4.8] |  | < 0.1 µM |
| COc1cc2c(-c3cc4c(ncc5cnn(C)c54)[nH]3)cn(C)c2cn1 [AC.2.1] |  | < 0.1 µM |
| CC(C)n1cc(-c2cc3c(ncc4cnn(C)c43)[nH]2)c2ccccc21 [N.1.82] | 0.1 to 1 µM |  |
| COCCNC(=O)c1ccc(-c2nc(C3CCCCC3)n3c2cnc2[nH]ccc23)cc1 [AC.3.17] |  | 0.1 to 1 µM |
| CSc1ccc(-c2nn(C)c3c2cnc2[nH]ccc23)cc1 [AU.1, 1-Methyl-3-(4-(methylthio)phenyl)-1,6-dihydropyrazolo[3,4-d]pyrrolo[2,3-b]pyridine] | < 0.1 µM |  |
| CC(=O)N[C@@H]1C[C@H](c2nc(-c3ccc(C(C)(C)O)cc3)c3cnc4[nH]ccc4n23)N(S(=O)(=O)C2CC2)C1 [AC.5.2] |  | 0.1 to 1 µM |
| COc1ccc(-c2ncn3c2cnc2[nH]ccc23)cc1C [AC.4.10] |  | < 0.1 µM |
| CCc1c(-c2ccc3c(ccn3C)c2)[nH]c2ncc3cnn(C)c3c12 [N.1.15] | 1 to 10 µM |  |
| CCOCCCNC(=O)Cn1cccc1-c1cc2c(ncc3cnn(C)c32)[nH]1 [J.2.3.1] | 1 to 10 µM |  |
| Cc1cc(-c2cc3c(ncc4cnn(C)c43)[nH]2)ccc1N1CCN(C)CC1 [N.1.115] | < 0.1 µM |  |
| COc1ccc2c(n1)c(-c1cc3c(ncc4cnn(C)c43)[nH]1)cn2C [N.1.116] | 0.1 to 1 µM |  |
| c1cc2c(ncc3c(-c4ccc(OC5CCNC5)cc4)ncn32)[nH]1 (stereo not drawn) [T.3.1.5] |  | 0.1 to 1 µM |
| Cn1cc(-c2cc3c(ncc4cnn(C)c43)[nH]2)c2ccc(C(=O)NC(C)(C)CO)cc21 [J.1.4.3] | < 0.1 µM |  |
| Cc1ncc2cnc3[nH]c(-c4cccc(C(=O)NCCN5CCOCC5)c4)cc3n12 [M.1.11] | 0.1 to 1 µM |  |
| CCc1c(-c2ccc(C(C)(C)O)cc2)[nH]c2nc(C)c3cncn3c12 [S.1.7] |  | 0.1 to 1 µM |
| Cc1ccc(-c2cc3c(ncc4cnc(N5CCCC5)n43)[nH]2)cc1 [M.1.18] | 0.1 to 1 µM |  |
| COc1ccc(-c2nn(CCO)c3c2cnc2[nH]ccc23)cc1 [AU.1.3] |  | 0.1 to 1 µM |
